Values after ≈ are worked out from the molar mass of the structure shown.
Key:
[1] = tested on: normotensive and spontaneously hypertensive conscious rats; test: Oral administration to normotensive and spontaneously hypertensive conscious rats, mean arterial blood pressure; format: in vivo, rat; conditions: for maximal mean arterial blood pressure reduction: oral
Procedure: In vivo testing included vasodilating results in the ganglion-blocked, angiotensin-II supported rat and antihypertensive screening in either the spontaneous hypertensive rat (SHR) or DOCA salt rats. In general, vasodilating activity paralleled calcium blocking activity for members of the instant series. […] A most preferred compound, BMY 20064 [drawing 21] was administered orally to both normotensive and spontaneously hypertensive conscious rats. Doses of 1 and 10 mg/kg elicited maximal mean arterial blood pressure reductions of 25 and 53 mmHg, respectively, in the normotensive rat group and 34 and 100 mmHg, respectively, in the spontaneously hypertensive rat group.

[2] = tested on: blood platelets in platelet rich plasma; test: Collagen aggregation of blood platelets in platelet rich plasma; format: cell-based; conditions: Oryctolagus cuniculus; platelet rich plasma (rabbit)

| Structure (SMILES) | onset of mean arterial blood pressure response ([1]; both groups (normotensive and SHR), oral 1 and 10 mg/kg) | persistence of mean arterial blood pressure response ([1]; both groups, after the higher dose (10 mg/kg oral)) | maximal mean arterial blood pressure reduction ([1]; normotensive conscious rats, 1 mg/kg) | maximal mean arterial blood pressure reduction ([1]; normotensive conscious rats, 10 mg/kg) | maximal mean arterial blood pressure reduction ([1]; spontaneously hypertensive conscious rats, 1 mg/kg) | maximal mean arterial blood pressure reduction ([1]; spontaneously hypertensive conscious rats, 10 mg/kg) | EC50 [2] |
| --- | --- | --- | --- | --- | --- | --- | --- |
| COC(=O)C1=C(C)NC(C)=C(C(=O)OCCCN2CCN(c3ccccc3OC)CC2)C1c1cccc([N+](=O)[O-])c1 (stereo not drawn) [BMY 20064] | < 10 min | > 4 h | 25 mmHg | 53 mmHg | 34 mmHg | 100 mmHg | 11 µg/mL (≈ 19.5 µM) |
| COC(=O)C1=C(C)NC(C)=C(C(=O)OC)C1c1ccccc1[N+](=O)[O-] [Nifedipine, 4-(2'-nitrophenyl)-2,6-dimethyl-3,5-dicarbomethoxy-1,4-dihydropyridine] | – | – | – | – | – | – | 176 µg/mL (≈ 508 µM) |
| COc1ccc(CCN(C)CCCC(C#N)(c2ccc(OC)c(OC)c2)C(C)C)cc1OC (stereo not drawn) [Verapamil] | – | – | – | – | – | – | 151 µg/mL (≈ 332 µM) |

Reference: patent US4895846A, “Pharmaceutically useful dihydropyridinyldicarboxylate amides and esters incorporating arylpiperazinylalkyl moieties” (Bristol-Myers Company, priority 1987, dated 1990)
